Structures are written as SMILES.

For this test, the system named is PBMCs infected with VSV-G pseudotyped HIV virus (VSV-G/pNLGI-P2A-ΔEnv). Briefly: cells. It counts as cell-based. Conditions: Homo sapiens, PBMC, read-out: TACK EC50 (nM).
One may read the EC50 as the midpoint of the concentration-response curve. For `Nc1nccn(Cc2cc3c(cc2F)[C@@](C#CC2CC2)(C(F)(F)F)OC(=O)N3)c1=O` (single isomer, unassigned) [Example 1A], the EC50 is 39 nM.
In the case of `O=C1Nc2cc(Cn3cnccc3=O)c(F)cc2[C@@](C#CC2CC2)(C(F)(F)F)O1` (single isomer, unassigned) [Example 2A], the EC50 is 88 nM.
The result for `Nc1cncn(Cc2cc3c(cc2F)[C@@](C#CC2CC2)(C(F)(F)F)OC(=O)N3)c1=O` (single isomer, unassigned) [Example 3A] reads 46 nM.
The result for `COc1cc(=O)n(Cc2cc3c(cc2F)[C@@](C#CC2CC2)(C(F)(F)F)OC(=O)N3)cn1` (single isomer, unassigned) [Example 4A] reads 25 nM; that for `COCc1cc(=O)n(Cc2cc3c(cc2F)[C@@](C#CC2CC2)(C(F)(F)F)OC(=O)N3)cn1` (single isomer, unassigned) [Example 5A], 35 nM; that for `Cc1cc(=O)n(Cc2cc3c(cc2F)[C@@](C#CC2CC2)(C(F)(F)F)OC(=O)N3)cn1` (single isomer, unassigned) [Example 6A], 43 nM.
With `O=C1Nc2cc(Cn3cnc(C(F)F)cc3=O)c(F)cc2[C@@](C#CC2CC2)(C(F)(F)F)O1` (single isomer, unassigned) [Example 7A] the figure was 45 nM; with `O=C1Nc2cc(Cn3cccn3)c(F)cc2[C@@](C#CC2CC2)(C(F)(F)F)O1` (single isomer, unassigned) [Example 29A], 428 nM.
As for `NS(=O)(=O)c1ccc(Cc2ccc3c(c2)NC(=O)O[C@]3(C#CC2CC2)C(F)(F)F)cc1` (single isomer, unassigned) [Example 30A], the EC50 came to 755 nM.
The result for `Nc1nccc(Cc2cc3c(cc2F)[C@@](C#CC2CC2)(C(F)(F)F)OC(=O)N3)n1` (single isomer, unassigned) [Example 31A] reads 91 nM; that for `N#Cc1c(Cc2cc3c(cc2F)[C@@](C#CC2CC2)(C(F)(F)F)OC(=O)N3)ccnc1N` (single isomer, unassigned) [Example 32A], 111 nM.
Regarding `CC(F)(F)[C@@]1(C#CC2CC2)OC(=O)Nc2cc(Cn3ccnc(N)c3=O)ccc21` [Example 8, (S)-7-((3-amino-2-oxopyrazin-1(2H)-yl)methyl)-4-(cyclopropylethynyl)-4-(1,1-difluoroethyl)-1,4-dihydro-2H-benzo[d][1,3]oxazin-2-one], the EC50 is 30 nM.
The result for `CC(F)(F)[C@@]1(C#CC2CC2)OC(=O)Nc2cc(Cn3cnccc3=O)ccc21` [Example 9, (S)-4-(cyclopropylethynyl)-4-(1,1-difluoroethyl)-7-((6-oxopyrimidin-1(6H)-yl)methyl)-1,4-dihydro-2H-benzo[d][1,3]oxazin-2-one] reads 90 nM; that for `Cc1cc(=O)n(Cc2ccc3c(c2)NC(=O)O[C@]3(C#CC2CC2)C(C)(F)F)cn1` [Example 10, (S)-4-(cyclopropylethynyl)-4-(1,1-difluoroethyl)-7-((4-methyl-6-oxopyrimidin-1(6H)-yl)methyl)-1,4-dihydro-2H-benzo[d][1,3]oxazin-2-one], 66 nM.
As for `COc1cc(=O)n(Cc2ccc3c(c2)NC(=O)O[C@]3(C#CC2CC2)C(C)(F)F)cn1` [Example 11, (S)-4-(cyclopropylethynyl)-4-(1,1-difluoroethyl)-7-((4-methoxy-6-oxopyrimidin-1(6H)-yl)methyl)-1,4-dihydro-2H-benzo[d][1,3]oxazin-2-one], the EC50 was 47 nM.
Regarding `COCc1cc(=O)n(Cc2ccc3c(c2)NC(=O)O[C@]3(C#CC2CC2)C(C)(F)F)cn1` [Example 12, (S)-4-(cyclopropylethynyl)-4-(1,1-difluoroethyl)-7-((4-(methoxymethyl)-6-oxopyrimidin-1(6H)-yl)methyl)-1,4-dihydro-2H-benzo[d][1,3]oxazin-2-one], the EC50 was found to be 68 nM.

The values above are taken from patent US20240409531A1, “BENZOXAZINONE DERIVATIVES AS SELECTIVE CYTOTOXIC AGENTS” (Merck Sharp & Dohme LLC, priority 2021, published 2024).
